In patent US20240101496A1, “SYNERGISTIC ACTION OF DCD AND ALKOXYPYRAZOLES AS NITRIFICATION INHIBITORS” (BASF SE, priority 2021, published 2024):

Legend:
[1] = system: nitrification in soil Limburgerhof; assay: Inhibition of nitrification in soil, Experiment 2 (incubation 42 days)
Method: (§1) The mixtures of the invention were tested as follows in terms of the inhibition of nitrification:
(§2) 100 g soil (soil Limburgerhof with pH(CaCl2) 6.8; 73% sand, 23% silt, 4% clay, which is classified according to FAO as a sandy loam) is filled into 500 ml plastic bottles and is moistened to 50% water holding capacity. The soil is incubated at 20° C. for two weeks prior to the experiments to activate the microbial biomass. 1 ml test solution, containing the components of the mixture in the appropriate concentration (usually from 0.1 to 3.13% (w/w) of fertilized NH4—N), and 10 mg nitrogen in the form of ammoniumsulfate-N(NH4—N) is added to the soil and everything mixed well. Unfertilized controls received 1 ml pure water. Bottles are capped but loosely to allow air exchange. The bottles are then incubated at 20° C. for 0 and 28 days in Experiment 1, and for 0 and 42 days in Experiment 2.
(§3) For analysis, 300 ml of a 1% K2SO4-solution is added to the bottle containing the soil and shaken for 2 hours in a horizontal shaker at 150 rpm. Then the whole solution is filtered through a filter (Macherey-Nagel Filter MN 807 ¼). Ammonium and nitrate content is then analyzed in the filtrate using an autoanalyzer. Ammonium was quantified via an indophenol blue dye at 660 nm, and nitrate via an azo dye at 540 nm.
(§4) The nitrification inhibition is expressed as % of NH4—N recovery from fertilized NH4—N(100%) after subtraction of unfertilized control soil, and as % inhibition of NO3—N formation (% reduction of NO3^− production) according to the formula:
(§5) In every experiment three tests (n=3) regarding the inhibition of nitrification were performed in each case.
(§6) The results were compared with the results calculated by Colby (Colby, S.R., Calculating synergistic and antagonistic responses of herbicide combinations, Weeds, 15, pp. 20-22, 1967) for an additive effect.
(§7) Colby's formula:E=x+y−x·y/100 • E=expected efficacy, expressed in % of the untreated control, when using the mixture comprising the components (i) and (ii) at concentrations a and b; • x=efficacy, expressed in % of the untreated control, when using component (i) at the concentration a; • y=efficacy, expressed in % of the untreated control, when using component (ii) at the concentration b.

[2] = system: nitrification in soil Limburgerhof; assay: Inhibition of nitrification in soil, Experiment 1 (incubation 28 days)
Method: as §1, §2, §3, §4, §5, §6, §7

[3] = system: nitrification in soil Limburgerhof; assay: Inhibition of nitrification in soil, mixtures with R^1 is CH2CH3, tested analogously (50 g soil, 4 replicates, 28 and 42 days); settings: R^1 is CH2CH3 series
Method: as §2, §3
The nitrification inhibition is expressed as % of NH4—N recovery from fertilized NH4—N(100%) after subtraction of unfertilized control soil, and as % inhibition of NO3—N formation (% reduction of NO3^− production) according to the formula: […]
as §6, §7
The following mixtures were tested analogously using 50 g soil Limburgerhof as defined above and ammonium sulfate as fertilizer in an amount N of 10 mg NH4N/100 g soil (number of replicates: 4)

[4] = (i) 0.1, (ii) 0 wt.-% relative to NH4—N
[5] = (i) 0.3, (ii) 0 wt.-% relative to NH4—N
[6] = (i) 0.9, (ii) 0 wt.-% relative to NH4—N
[7] = (i) 2.7, (ii) 0 wt.-% relative to NH4—N
[8] = (i) 0.2, (ii) 0 wt.-% relative to NH4—N
[9] = (i) 0.4, (ii) 0 wt.-% relative to NH4—N
[10] = (i) 0.8, (ii) 0 wt.-% relative to NH4—N
[11] = (i) 0, (ii) 0.2 wt.-% relative to NH4—N
[12] = (i) 0, (ii) 0.5 wt.-% relative to NH4—N
[13] = (i) 0, (ii) 1.25 wt.-% relative to NH4—N
[14] = (i) 0, (ii) 3.13 wt.-% relative to NH4—N
[15] = (i) 0, (ii) 1 wt.-% relative to NH4—N
[16] = (i) 0, (ii) 2 wt.-% relative to NH4—N

COc1cc(C)n[nH]1 [Component (i)]
% Inhibition of NO3^− production after 42 days, Measured [1, 4]: 2.5%
% Inhibition of NO3^− production after 42 days, Measured [1, 5]: 12.2%
% NH4—N recovery from fertilized NH4—N after 42 days, Measured [1, 5]: 1.9%
% Inhibition of NO3^− production after 42 days, Measured [1, 6]: 42.1%
% NH4—N recovery from fertilized NH4—N after 42 days, Measured [1, 6]: 29.6%
% Inhibition of NO3^− production after 42 days, Measured [1, 7]: 83.8%
% NH4—N recovery from fertilized NH4—N after 42 days, Measured [1, 7]: 64.4%
% Inhibition of NO3^− production after 28 days, Measured [2, 4]: 0.5%
% NH4—N recovery from fertilized NH4—N after 28 days, Measured [2, 4]: 0.7%
% Inhibition of NO3^− production after 28 days, Measured [2, 8]: 25.8%
% NH4—N recovery from fertilized NH4—N after 28 days, Measured [2, 8]: 17.2%
% Inhibition of NO3^− production after 28 days, Measured [2, 9]: 44.2%
% NH4—N recovery from fertilized NH4—N after 28 days, Measured [2, 9]: 41.8%
% Inhibition of NO3^− production after 28 days, Measured [2, 10]: 67.6%
% NH4—N recovery from fertilized NH4—N after 28 days, Measured [2, 10]: 62.6%

N#CN=C(N)N [Component (ii), Dicyandiamide]
% Inhibition of NO3^− production after 42 days, Measured [1, 11]: 9.2%
% NH4—N recovery from fertilized NH4—N after 42 days, Measured [1, 11]: 0%
% Inhibition of NO3^− production after 42 days, Measured [1, 12]: 10.4%
% Inhibition of NO3^− production after 42 days, Measured [1, 13]: 10.0%
% Inhibition of NO3^− production after 42 days, Measured [1, 14]: 15.4%
% Inhibition of NO3^− production after 28 days, Measured [3, 13]: 4.3%
% Inhibition of NO3^− production after 42 days, Measured [3, 13]: 4.0%
% NH4—N recovery from fertilized NH4—N after 28 days, Measured [3, 13]: 0.0%
% NH4—N recovery from fertilized NH4—N after 42 days, Measured [3, 13]: 0.0%
% Inhibition of NO3^− production after 28 days, Measured [3, 14]: 15.7%
% Inhibition of NO3^− production after 42 days, Measured [3, 14]: 4.0%
% NH4—N recovery from fertilized NH4—N after 28 days, Measured [3, 14]: 0.0%
% NH4—N recovery from fertilized NH4—N after 42 days, Measured [3, 14]: 0.0%
% Inhibition of NO3^− production after 28 days, Measured ([2]; (i) 0, (ii) 0.25 wt.-% relative to NH4—N): −1.2%
% Inhibition of NO3^− production after 28 days, Measured [2, 12]: 7.7%
% Inhibition of NO3^− production after 28 days, Measured [2, 15]: 3.5%
% NH4—N recovery from fertilized NH4—N after 28 days, Measured [2, 15]: 0.8%
% Inhibition of NO3^− production after 28 days, Measured [2, 16]: 16.3%
% NH4—N recovery from fertilized NH4—N after 28 days, Measured [2, 16]: 9.0%
